Measured values published in patent US20240246969A1, “HETEROCYCLIC DERIVATIVES AS CAMKK2 INHIBITORS” (Bristol-Myers Squibb Company, priority 2021, published 2024).

How the values were obtained:
pAMPK in A427 = assay: A427 pAMPK MOA assay; format: cell-based; conditions: Homo sapiens, A-427
CYP450 = CYP450 inhibition; format: in vitro ADME; conditions: all isoforms except 2C9
2C9 = 2C9 (Homo sapiens, UniProt P11712); assay: CYP450 2C9 inhibition; format: in vitro ADME
PPB, mouse (m) = format: in vitro ADME; conditions: plasma, first value of (m, h)
PPB, human (h) = format: in vitro ADME; conditions: plasma, second value of (m, h)
[1] = Microsomes stability, mouse (m); format: in vitro ADME; conditions: first value of (m, h)
[2] = Microsomes stability, human (h); format: in vitro ADME; conditions: second value of (m, h)
PK = conditions: in vivo; read-out: PK % F
CEREP = CEREP panel; conditions: @ 10 uM
CaMKK2 = CaMKK2 (Homo sapiens, UniProt Q96RR4); assay: CaMKK2 binding assay (LanthaScreen TR-FRET); conditions: Table 8
CaMKK2, sequence (Q96RR4 whole entry): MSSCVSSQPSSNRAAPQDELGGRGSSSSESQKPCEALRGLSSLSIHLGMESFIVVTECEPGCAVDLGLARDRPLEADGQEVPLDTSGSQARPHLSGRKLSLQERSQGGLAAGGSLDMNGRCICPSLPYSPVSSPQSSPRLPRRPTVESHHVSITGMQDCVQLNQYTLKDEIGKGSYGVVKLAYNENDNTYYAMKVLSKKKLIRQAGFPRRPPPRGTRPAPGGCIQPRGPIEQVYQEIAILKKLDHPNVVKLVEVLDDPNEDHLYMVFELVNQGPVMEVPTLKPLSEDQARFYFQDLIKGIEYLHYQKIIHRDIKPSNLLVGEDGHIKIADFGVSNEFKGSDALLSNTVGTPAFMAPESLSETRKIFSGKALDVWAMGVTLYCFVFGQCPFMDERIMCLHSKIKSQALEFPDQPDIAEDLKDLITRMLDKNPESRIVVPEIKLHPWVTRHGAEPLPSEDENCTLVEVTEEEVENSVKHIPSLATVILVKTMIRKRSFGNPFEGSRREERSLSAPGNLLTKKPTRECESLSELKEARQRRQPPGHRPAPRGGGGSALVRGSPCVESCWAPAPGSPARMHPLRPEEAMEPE

[3] = test system: phosphorylation of CaMKK2 substrate AMPK at Thr172 in A549 lung carcinoma cells; assay: Cell-based phosphorylation assay (Phospho-AMPK Thr172 HTRF); conditions: Homo sapiens, A549; read-out: A549 pAMPK MOA EC50
Description: Cellular CaMKK2 inhibition by compounds was measured by monitoring the phosphorylation of CaMKK2 substrate AMPK at Thr172 in A549 lung carcinoma cells (ATCC) using CISBIO Phospho-AMPK (Thr172) HTRF kit. A549 cells were plated in 96 well plates at 8000 cells/well in DMEM+10% FBS+1× pen/step+1×NEAA and incubated at 37° C. overnight in a CO2 incubator. Cells were then treated with compounds for 4 hours. After cells were stimulated by 3 uM Calcium Ionophore (Sigma) at 37° C. for 30 minutes, cells were washed and then lysed with cell lysis buffer (CisBio) for 30 minutes. […] Plates were incubated overnight and then read using HTRF mode by BMG PHERAstarFS.

CaMKK1 = CaMKK1 (Homo sapiens, UniProt Q8N5S9); assay: CaMKK1 IC50; format: binding
CaMKK1, sequence (Q8N5S9 whole entry, species assumed): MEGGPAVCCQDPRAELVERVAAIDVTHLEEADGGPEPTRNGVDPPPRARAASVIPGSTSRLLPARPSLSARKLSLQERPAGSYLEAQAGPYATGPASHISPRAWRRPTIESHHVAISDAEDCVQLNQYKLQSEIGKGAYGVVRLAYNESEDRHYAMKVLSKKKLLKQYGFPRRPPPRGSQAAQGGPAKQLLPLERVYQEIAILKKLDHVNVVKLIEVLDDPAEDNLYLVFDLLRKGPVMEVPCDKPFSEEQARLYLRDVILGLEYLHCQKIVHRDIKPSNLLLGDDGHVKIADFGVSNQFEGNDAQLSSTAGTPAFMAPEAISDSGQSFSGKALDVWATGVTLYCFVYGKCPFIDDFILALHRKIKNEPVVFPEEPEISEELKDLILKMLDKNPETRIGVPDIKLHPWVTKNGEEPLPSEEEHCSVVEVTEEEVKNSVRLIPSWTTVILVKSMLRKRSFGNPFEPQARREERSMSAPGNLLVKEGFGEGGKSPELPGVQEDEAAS

KSP (72) kinases = test system: KSP (72) kinases; set-up: dose or concentration left out as unconfirmed; conditions: of 72 kinases

2C9, sequence (P11712 whole entry): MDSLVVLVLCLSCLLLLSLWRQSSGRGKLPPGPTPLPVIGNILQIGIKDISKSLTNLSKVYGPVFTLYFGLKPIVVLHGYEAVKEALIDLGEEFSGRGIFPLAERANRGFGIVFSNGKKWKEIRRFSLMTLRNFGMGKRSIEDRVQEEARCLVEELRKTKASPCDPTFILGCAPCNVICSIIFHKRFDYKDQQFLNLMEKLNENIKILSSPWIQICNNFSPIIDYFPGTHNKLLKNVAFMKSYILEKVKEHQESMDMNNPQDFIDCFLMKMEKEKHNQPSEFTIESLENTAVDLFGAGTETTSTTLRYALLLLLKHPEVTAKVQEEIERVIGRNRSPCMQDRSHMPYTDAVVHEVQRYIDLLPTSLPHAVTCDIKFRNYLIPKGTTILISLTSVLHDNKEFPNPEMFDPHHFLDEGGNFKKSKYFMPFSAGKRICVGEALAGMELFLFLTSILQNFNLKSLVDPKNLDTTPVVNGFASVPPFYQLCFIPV

In the case of `CCOc1ccc2c(-c3ccc(C(=O)O)c(C4CCCC4)c3)ncnc2c1` [Example 5.1, 2-cyclopentyl-4-(7-ethoxyquinazolin-4-yl)benzoic acid], the EC50 (pAMPK in A427) is reported as 0.074 µM, the CYP450 (CYP450) is reported as over 30 µM and the “CYP450 2C9” value (2C9) is reported as 2C9 (4 mM). For the same molecule, the fraction unbound (PPB, mouse (m)) was 0.015, the fraction unbound (PPB, human (h)) was 0.01 and the “Microsomes (m) Stability60” value [1] was “Stability60: 96, %”. The “Microsomes (m) UGT” value [1] was 79%, the “Microsomes (h) Stability60” value [2] was 100% and the “Microsomes (h) UGT” value [2] was 89%. For the same molecule, the bioavailability (PK) was 80% and the CEREP (CEREP) was “no inhibition >50%”.
With `CCOc1ccc2c(-c3ccc(C(=O)O)c(C4CCCC4)c3)ccnc2c1` [Example 5.3, 2-cyclopentyl-4-(7-ethoxyquinolin-4-yl)benzoic acid] the IC50 (CaMKK2) was 0.0015 µM, the EC50 [3] was 0.06 µM and the IC50 (CaMKK1) was 0.0017 µM. For the same molecule, the EC50 (pAMPK in A427) was 0.03 µM, the fraction unbound (PPB, mouse (m)) was under 0.01 and the fraction unbound (PPB, human (h)) was under 0.01. The “Microsomes (m) CYP/UGT60” value [1] was “CYP/UGT60: 66, %”, the “Microsomes (h) CYP/UGT60” value [2] was 67% and the bioavailability (PK) was 58%. For the same molecule, the “Kinase Selectivity KSP (72)” value (KSP (72) kinases) was 6 of 72 @.
